From patent US4164571A, “Medicament which antagonizes the action of gastrin and related polypeptides” (Commissariat a l'Energie Atomique, priority 1976, dated 1979)
Where two headings read alike, the source gives them in different places.

Key:
[1] = tested on: stimulated secretion of gastric juice; assay: stimulated gastric acid secretion in anaesthetised perfused rats (Ghosh and Schild, modified by Lai), intravenous injection; type: in vivo, rat; details: for % inhibition of pentagastrin stimulated acid secretion / % inhibition of gastrin I stimulated acid secretion: i.v.
Protocol: A first series of experiments was carried out on male Wistar rats weighing 300 to 325 g. The procedure used was that of Ghosh and Schild, modified by Lai. The rats fasted for the 18 hours preceding the test. On the day of the test the rats were anaesthesized with urethane by the intraperitoneal route at a rate of 1.20 g of urethane per kilogramme. The rectal temperature was maintained at 34°±1° C. by means of an anal probe connected to a thermometer which electronically controlled the lighting up of a 100 Watt lamp positioned above each rat. An oesophageal probe (polyethylene catheter) was introduced up to the oesophagus--rumen junction of the rat and another catheter was introduced into the pyloric opening via the duodenum. The stomach was perfused with a solution of physiological serum introduced by means of the oesophageal tube at a constant speed of 1 ml/mn and was collected every ten minutes by the pyloroduodenal probe.
The rats prepared in this way were left to rest for a period of at least 45 minutes. The perfusate sampled every 10 minutes was then determined by means of a 0.01 N soda solution at pH 8.45, corresponding to a phenolphthalein colour change or at pH 7.4 with an automatic titration apparatus at constant pH.
After determining the basal acid secretion of the gastric juice on at least four consecutive samples a dose of gastrin was intravenously administered to the rats in the vein of the penis and subsequently the response to this stimulation was recorded until the secretion returned to the basal level over a period of at least twice 10 minutes. […] The results are expressed in microequivalents of hydrochloric acid per 40 minutes and are calculated as follows: either as the number of secreted microequivalents after stimulation less the number of microequivalents secreted in the 40 minutes prior to the injection of the dose, or as an acid peak, i.e., taking the average of the two consecutive maximum responses for each dose less the average value for the two basal values preceding the injection.
The transformation into double inverse makes it possible by analogy with enzymatic reactions to conclude whether the inhibition is of the competitive type or not.

mice = details: for number of death cases: group of ten mice
Description: All the dead or surviving animals are autopsied, the stomach and the small intestine are examined for heamorrhages or ulcers.

[2] = tested on: stimulated secretion of gastric juice; assay: gastric acid secretion in rats under continuous intravenous perfusion; type: in vivo, rat
Protocol: In a second series of experiments an intravenous perfusion of an isotonic solution of […] sodium chloride was administered at a rate of 2.4 ml/h to rats prepared in the manner indicated hereinbefore according to the procedure of Ghosh and Schild, modified by Lai. This perfusion was administered to the vein of the penis.
The rats prepared in this manner were left at rest for at least 45 minutes, then the acidity was determined as hereinbefore on the gastric perfusate sampled every 10 minutes. […] At the end of the first hour a dose of gastrin I was added to the perfusion. The results obtained are given in FIG. 5a showing the variations of the gastric secretion as a function of time.

Boc-Gly-Trp-(NPS)-Met-Aspe-Phe-NH2 [pentagastrin-NPS]
inhibition of pentagastrin action ([1]; pentagastrin-NPS associated with pentagastrin): inhibits the pentagastrin action
% inhibition of pentagastrin stimulated acid secretion ([1]; ratio pentagastrin-NPS/pentagastrin 1/1, 50 ng pentagastrin-NPS with 50 ng pentagastrin): 100%
% inhibition of pentagastrin stimulated acid secretion ([1]; ratio pentagastrin-NPS/pentagastrin 1/2, 50 ng pentagastrin-NPS with 100 ng pentagastrin): 100%
% inhibition of pentagastrin stimulated acid secretion ([1]; ratio pentagastrin-NPS/pentagastrin 1/3, 50 ng pentagastrin-NPS with 150 ng pentagastrin): 75%
% inhibition of pentagastrin stimulated acid secretion ([1]; ratio pentagastrin-NPS/pentagastrin 1/4, 50 ng pentagastrin-NPS with 200 ng pentagastrin): < 20%
number of death cases (mice; 1280 μg/kg i.p., 24 h): 1
petechiae at autopsy (mice; 2560 μg/kg i.p.): a few petechiae are observed
number of death cases (mice; 2560 μg/kg i.p., 6 h): 1
number of death cases (mice; 2560 μg/kg i.p., 24 h): 1
number of death cases (mice; 2560 μg/kg i.p., 48 h): 2
digestive hemorrhage at autopsy (mice; 160 to 2560 μg/kg i.p.): does not lead to any digestive hemorrhage
doses leading to no modifications (petechiae) of the stomach and of the intestine (mice; i.p.): under 2,5 mg/kg

CSCC[C@H](NC(=O)[C@H](Cc1c[nH]c2ccccc12)NC(=O)CCNC(=O)OC(C)(C)C)C(=O)N[C@@H](CC(=O)O)C(=O)N[C@@H](Cc1ccccc1)C(N)=O [pentagastrin, Boc-Gly-Trp-Met-Asp-phe-NH2, reference compound]
number of death cases (mice; 1280 μg/kg i.p., 2 h): 1
number of death cases (mice; 1280 μg/kg i.p., 6 h): 1
number of death cases (mice; 2560 μg/kg i.p., 2 h): 2
number of death cases (mice; 2560 μg/kg i.p., 48 h): 1
dose at which digestive hemorrhages are observed (mice; i.p., importance increases with the dose): ≥ 0.32 mg/kg
LD 50 (mice; i.p., logit-log paper): higher than 3.2 mg/kg

orthonitrophenyl sulphenylated gastrin I [gastrin I-NPS]
type of inhibition of gastrin I response (double inverse representation) ([1]; 100 or 200 ng gastrin I-NPS with each dose of gastrin I): inhibition is competitive
% inhibition of gastrin I stimulated acid secretion ([1]; ratio gastrin I-NPS/gastrin I 1/1, 50 ng gastrin NPS with 50 ng gastrin I): 100%
% inhibition of gastrin I stimulated acid secretion ([1]; ratio gastrin I-NPS/gastrin I 1/2, 50 ng gastrin NPS with 100 ng gastrin I): 75%
% inhibition of gastrin I stimulated acid secretion ([1]; ratio gastrin I-NPS/gastrin I 1/3, 50 ng gastrin NPS with 150 ng gastrin I): 65%
% inhibition of gastrin I stimulated acid secretion ([1]; ratio gastrin I-NPS/gastrin I 1/4, 50 ng gastrin NPS with 200 ng gastrin I): < 35%
time until stimulated secretion plateau after introduction of gastrin I ([2]; 100 ng/h gastrin I-NPS with 200 ng/h gastrin I, plateau at a lower level): 30 min
time until stimulated secretion plateau after introduction of gastrin I ([2]; 100 ng/h gastrin I-NPS with 400 ng/h gastrin I, plateau reaches the level of 100 ng/h gastrin I): 40 min
secretory response to the substance alone ([2]; 100 ng/h in intravenous perfusion): causes no secretory response
